Columns and labels:
[1] = system: spleen; test: In vivo analysis in CD-1 mice: luciferase mRNA-LNP, luminescence in the spleen; conditions: LNP 50/10/38.5/1.5 mol % ionizable lipid/DSPC/chol/PEG-DMG, N/P 6, mRNA encoding luciferase 1 mg/kg intravenous, 4 hours post-injection (FIG. 2B)
Method: (§1) Lipids 1 or 2 described herein, DSPC, cholesterol, and PEG-DMG, were dissolved in ethanol at the appropriate ratios to a final concentration of 10 mM total lipid. Nucleic acid (siRNA or mRNA) was dissolved in an appropriate buffer such as 25 mM sodium acetate pH 4 or sodium citrate pH 4 to a concentration necessary to achieve the appropriate amine-to-phosphate ratios. The aqueous and organic solutions were mixed using a rapid-mixing device as described in Kulkarni et al., 2018, ACS Nano, 12:4787 and Kulkarni et al., 2017, Nanoscale, 36:133347 (each incorporated herein by reference) at a flow rate ratio of 3:1 (v/v; respectively) and a total flow rate of 20 mL/min. The resultant mixture was dialyzed directly against 1000-fold volume of PBS pH 7.4. All formulations were concentrated using an Amicon™ centrifugal filter unit and analysed using the methods described below. LNP-mRNA encoding firefly luciferase were injected intravenously (tail-vein) into 6-8 week old CD-1 mice. Four hours following injection, the animals were euthanized and the liver and spleen and isolated. Tissue was homogenized in Glo Lysis buffer and a luciferase assay performed using the Steady Glo Luciferase assay kit (as per manufacturers recommendations). LNP formulations containing 50/10/38.5/1.5 mol % of ionizable lipids/DSPC/chol/PEG-DMG with a nitrogen-to-phosphorous ratio (N/P) of 6 and mRNA encoding luciferase were tested for in vivo transfection efficiency in the liver and spleen after injection to CD-1 mice. The mRNA dose was 1 mg/kg. Luminescence intensity in the liver and spleen was measured at 4 hours post-injection. The ionizable lipids were 1 and 5-32 (Table 1).

[2] = system: liver; test: In vivo analysis in CD-1 mice: luciferase mRNA-LNP, luminescence in the liver; conditions: LNP 50/10/38.5/1.5 mol % ionizable lipid/DSPC/chol/PEG-DMG, N/P 6, mRNA encoding luciferase 1 mg/kg intravenous, 4 hours post-injection (FIG. 2A)
Method: as §1

[3] = delivery of siRNA; relative to KC2; cited from earlier work

Q: Which “luminescence intensity per mg spleen compared with the MC3 benchmark” value [1] does the source give for `CCCCCCCCC(=O)OC(CCCCCC(CCCCCC(CSCCCCC)OC(=O)CCCCCCCC)N(C)CCCCO)CSCCCCC` (centres unmarked) [lipid 25, 8-((4-hydroxybutyl)(methyl)amino)-1,15-bis(pentylthio)pentadecane-2,14-diyl dinonano-ate] here?
A: higher

Q: What about the “luminescence intensity per mg liver compared with the MC3 benchmark” value [2] of the same compound?
A: higher

Q: With `CCCCCCCCCC(=O)OC(CCCCCC(CCCCCC(CSCCCCCC)OC(=O)CCCCCCCCC)OC(=O)CCCN(C)C)CSCCCCCC` (centres unmarked) [lipid 7, 8-((4-(Dimethylamino)butanoyl)oxy)-1,15-bis(hexylthio)pentadecane-2,14-diyl bis(decanoate)] as the compound, how does the “luminescence intensity per mg spleen compared with the MC3 benchmark” value [1] read?
A: higher

Q: What about the “luminescence intensity per mg liver compared with the MC3 benchmark” value [2] of the same compound?
A: higher

Q: For `CCCCCCSCC(CCCCCC(CCCCCC(CSCCCCCC)OC(=O)CCC1CCCCC1)OC(=O)CCCN(C)C)OC(=O)CCC1CCCCC1` (centres unmarked) [lipid 8, 8-((4-(Dimethylamino)butanoyl)oxy)-1,15-bis(hexylthio)pentadecane-2,14-diyl bis(3-cyclohexylpropanoate)], which “luminescence intensity per mg spleen compared with the MC3 benchmark” value [1] is on record?
A: higher

Q: And the “luminescence intensity per mg liver compared with the MC3 benchmark” value [2]?
A: higher

Q: With `CCCCCCCCC(=O)OC(CCCCCC(CCCCCC(CSC1CCCCC1)OC(=O)CCCCCCCC)OC(=O)CCCN(C)C)CSC1CCCCC1` (centres unmarked) [lipid 11, 1,15-bis(cyclohexylthio)-8-((4-(dimethylamino)butanoyl)oxy)pentadecane-2,14-diyl dinonanoate] as the compound, how does the “luminescence intensity per mg liver compared with the MC3 benchmark” value [2] read?
A: higher

Q: Which “luminescence intensity per mg spleen compared with the MC3 benchmark” value [1] does the source give for `CCCCCCCCCC(=O)OC(CCCCCC(CCCCCC(CSCCCCCC)OC(=O)CN(C)C(=O)CCCCC)N(C)CCCCO)CSCCCCCC` (centres unmarked) [lipid 30, 14-((N-hexanoyl-N-methylglycyl)oxy)-1,15-bis(hexylthio)-8-((4-hydroxybutyl)(methyl)-amino)pentadecan-2-yl decanoate] here?
A: higher

Q: What about the “luminescence intensity per mg liver compared with the MC3 benchmark” value [2] of the same compound?
A: higher

Q: For `CCCCCCCCCC(=O)OC(CCCCCC(CCCCCC(CSCCCCCC)OC(=O)CCCCCCCCC)N(C)CCCCO)CSCCCCCC` (centres unmarked) [lipid 27, 1,15-bis(Hexylthio)-8-((4-hydroxybutyl)(methyl)amino)pentadecane-2,14-diyl bis-(decanoate)], which “luminescence intensity per mg spleen compared with the MC3 benchmark” value [1] is on record?
A: higher

Q: What about the “luminescence intensity per mg liver compared with the MC3 benchmark” value [2] of the same compound?
A: higher

Q: Which “luminescence intensity per mg spleen compared with the MC3 benchmark” value [1] does the source give for `CCCCCCCCC(=O)OC(CCCCCC(CCCCCC(CSC1CCCCC1)OC(=O)CCCCCCCC)N(C)CCCCO)CSC1CCCCC1` (centres unmarked) [lipid 32, 1,15-bis(Cyclohexylthio)-8-((4-hydroxybutyl)(methyl)amino)pentadecane-2,14-diyl dinonanoate] here?
A: higher

Q: What about the “luminescence intensity per mg liver compared with the MC3 benchmark” value [2] of the same compound?
A: higher

Q: For `CCCCCCCCCC(=O)OC(CCCCC(CCCCC(CSC1CCCCC1)OC(=O)CCCCCCCCC)OC(=O)CCCN(C)C)CSC1CCCCC1` (centres unmarked) [lipid 6, 1,13-bis(Cyclohexylthio)-7-((4-(dimethylamino)butanoyl)oxy)tridecane-2,12-diyl bis-(decanoate)], which “luminescence intensity per mg spleen compared with the MC3 benchmark” value [1] is on record?
A: higher

Q: What about the “luminescence intensity per mg liver compared with the MC3 benchmark” value [2] of the same compound?
A: higher

Q: For `CCCCC/C=C\C/C=C\CCCCCCCCC(CCCCCCCC/C=C\C/C=C\CCCCC)OC(=O)CCCN(C)C` [MC3, DLin-MC3-DMA], which “siRNA required, times less than KC2” value [3] is on record?
A: about 3 times

Q: Which “luminescence intensity per mg liver compared with the MC3 benchmark” value [2] does the source give for `CCCCCCCCCC(=O)OC(CCCCCC(CCCCCC(CSC1CCCCC1)OC(=O)CCCCCCCCC)OC(=O)CCCN(C)C)CSC1CCCCC1` (centres unmarked) [lipid 10, 1,15-bis(cyclohexylthio)-8-((4-(dimethylamino)butanoyl)oxy)pentadecane-2,14-diyl bis(decanoate)] here?
A: higher

Q: Which results are given for `CCCCCCCCC(=O)OC(CCCCC(CCCCC(CSCCCCCCC)OC(=O)CCCCCCCC)N(C)CCCCO)CSCCCCCCC` (centres unmarked) [lipid 24, 1,13-bis(Heptylthio)-7-((4-hydroxybutyl)(methyl)amino)tridecane-2,12-diyl dinonano-ate]?
A: luminescence intensity per mg spleen compared with the MC3 benchmark [1]: higher; luminescence intensity per mg liver compared with the MC3 benchmark [2]: higher

Q: With `CCCCCCCCCC(=O)OC(CCCCC(CCCCC(CSCCCCCCC)OC(=O)CCCCCCCCC)N(C)CCCCO)CSCCCCCCC` (centres unmarked) [lipid 23, 1,13-bis(Heptylthio)-7-((4-hydroxybutyl)(methyl)amino)tridecane-2,12-diyl bis(decano-ate)] as the compound, how does the “luminescence intensity per mg spleen compared with the MC3 benchmark” value [1] read?
A: higher

Q: What about the “luminescence intensity per mg liver compared with the MC3 benchmark” value [2] of the same compound?
A: higher

Q: Which “luminescence intensity per mg spleen compared with the MC3 benchmark” value [1] does the source give for `CCCCCCCCCC(=O)OC(CCCCCC(CCCCCC(CSCCCCC)OC(=O)CCCCCCCCC)N(C)CCCCO)CSCCCCC` (centres unmarked) [lipid 26, 8-((4-hydroxybutyl)(methyl)amino)-1,15-bis(pentylthio)pentadecane-2,14-diyl bis-(decanoate)] here?
A: higher

Q: What about the “luminescence intensity per mg liver compared with the MC3 benchmark” value [2] of the same compound?
A: higher

Q: Which “luminescence intensity per mg spleen compared with the MC3 benchmark” value [1] does the source give for `CCCCCCCCC(=O)OC(CCCCCC(CCCCCC(CSCCCCCCC)OC(=O)CCCCCCCC)N(C)CCCCO)CSCCCCCCC` (centres unmarked) [lipid 31, 1,15-bis(Heptylthio)-8-((4-hydroxybutyl)(methyl)amino)pentadecane-2,14-diyl dinonanoate] here?
A: higher

Q: What about the “luminescence intensity per mg liver compared with the MC3 benchmark” value [2] of the same compound?
A: higher

Q: With `CCCCCCCCCC(=O)OC(CCCCCC(CCCCCC(CSCCCCCC)OC(=O)CN(C)C(=O)CCCCC)OC(=O)CCCN(C)C)CSCCCCCC` (centres unmarked) [lipid 9, 8-((4-(dimethylamino)butanoyl)oxy)-14-((N-hexanoyl-N-methylglycyl)oxy)-1,15-bis-(hexylthio)pentadecan-2-yl decanoate] as the compound, how does the “luminescence intensity per mg spleen compared with the MC3 benchmark” value [1] read?
A: higher

Q: What about the “luminescence intensity per mg liver compared with the MC3 benchmark” value [2] of the same compound?
A: higher

Q: For `CCCCCCCCCC(=O)OC(CCCCC(CCCCC(CSCCCCC)OC(=O)CCCCCCCCC)N(C)CCCCO)CSCCCCC` (centres unmarked) [lipid 22, 7-((4-Hydroxybutyl)(methyl)amino)-1,13-bis(pentylthio)tridecane-2,12-diyl bis(decano-ate)], which “luminescence intensity per mg spleen compared with the MC3 benchmark” value [1] is on record?
A: higher

Q: And the “luminescence intensity per mg liver compared with the MC3 benchmark” value [2]?
A: higher
